The record followed here is patent US12435077B2, “Oxazolidinone compound and methods of use thereof as an antibacterial agent” (priority 2020, dated 2025).

The term MRT denotes the average time that molecules of a dose stay in the body. One may read the Vd as a proportionality between amount in the body and measured concentration, not a real space. A lower Vd goes with confinement near the circulation. As a reminder, the clearance is the rate of elimination divided by the concentration. Lower therefore signals a low capacity for elimination. For orientation: IC50 means the midpoint of a concentration-inhibition curve.

Data set [1] can be described thus: in vivo. The following applies: male, rat, iv. On the procedure:
Plasma pharmacokinetic parameters for clearance, volume of distribution, half-life and oral bioavailability were determined in rats from oral administration and IV administration studies. 4 male rats, typically weighing 225-260 gram, were fasted overnight prior to dosing. Compounds were prepared for oral and IV dosing by addition to a vehicle, depending on the dose used. For a typical preparation, 1 mg per mL (IV) or 1.5 mg per mL (oral) of test compound was added to vehicle comprised of 20% dimethyl sulfoxide (DMSO), 60% polyethylene glycol 400 (PEG400) and 20% water. Intravenous (IV) formulation was administered to two rats via pre-cannulated jugular vein, and oral dosing was administered to two rats via oral gavage. Blood was collected by pre-cannulated artery, typically at predose, 2, 8, 15, 30 min, 1, 2, 4, 6, and 8 hours post-dose for IV, and at predose, 15, 30 mins, 1, 2, 4, 6, 8 hours for oral dosing. Samples were collected in K2EDTA tubes, stored on ice, and centrifuged. Plasma was transferred to a micro titer plate and stored at −70° C. until analysis. Plasma samples were extracted using protein precipitation and analyzed by liquid chromatography separation followed by mass spec detection (LC-MS/MS), using a standard curve for each compound. Plasma pharmacokinetic parameters were calculated for IV and oral dosing data by non-compartmental methods. Oral bioavailability was determined as the ratio of the dose-normalized plasma area under the curve (AUC) following oral dosing vs. IV dosing. Plasma pharmacokinetic parameters for clearance, volume of distribution, half-life and mean residence time (MRT) were determined in rats from IV cassette administration studies. Two male rats typically weighing 225-260 gram, were fasted overnight prior to dosing. Compounds were prepared for IV dosing by addition to a vehicle, depending on the dose used. For a typical preparation, 1 mg per mL (IV) of up to 5 test compounds were added to vehicle comprised of 20% dimethyl sulfoxide (DMSO), 60% polyethylene glycol 400 (PEG400) and 20% water. IV formulation was administered to two rats via pre-cannulated jugular vein. Blood was collected by pre-cannulated artery, typically at predose, 2, 8, 15, 30 mins, 1, 2, 4, 6, and 8 hours postdose. Samples were collected in K2EDTA tubes, stored on ice, and centrifuged. Plasma was transferred to a micro titer plate and stored at −70° C. until analysis. Plasma samples were extracted using protein precipitation and analyzed by liquid chromatography separation followed by mass spec detection (LC-MS/MS), using a standard curve for each compound. Plasma pharmacokinetic parameters were calculated by non-compartmental methods.

Data set [2] can be described thus: Plasma protein binding, rat plasma. It is filed as in vitro ADME. Here is the method:
(§1) Binding of compounds to plasma proteins from rat and dog was determined by equilibrium dialysis of the appropriate species plasma at 37° C. for 4 hours in the presence of 2.5 uM of test compound. Plasma samples were precipitated and separated by centrifugation. The supernatant was analyzed by mass spec detection (LC-MS/MS), using a standard curve for each compound. The fraction of unbound compound was calculated per the following: • Fraction Unbound (fu)=Peak Area Ratiobuffer/Peak Area Ratioplasma • where • Peak Area Ratiobuffer=Peak area ratio of analyte/internal standard in buffer • Peak Area Ratioplasma=Peak area ratio of analyte/internal standard in plasma

The nature of data set [3]: in vivo. The following applies: male, dog, iv. Here is the method:
Plasma pharmacokinetic parameters for clearance, volume of distribution, half-life, mean residence time (MRT) and oral bioavailability were determined in dogs from oral administration and IV administration studies. Four male dogs, typically weighing 8-12 kilograms, were fasted overnight prior to dosing. Compounds were prepared for oral and IV dosing by addition to a vehicle, depending on the dose used. For a typical preparation, 1 mg per mL (IV) or 1.5 mg per mL (oral) of test compound was added to vehicle comprised of 20% dimethyl sulfoxide (DMSO), 60% polyethylene glycol 400 (PEG400) and 20% water. IV formulation was administered to two dogs via the saphenous or cephalic vein, and oral dosing was administered to two dogs via oral gavage. Blood was collected by the cephalic or jugular vein, typically at predose, 2, 8, 15, 30 mins, 1, 2, 4, 6, 8 and 24 hours post-dose for IV, and at predose, 15, 30 mins, 1, 2, 4, 6, 8, and 24 hours for oral dosing. Samples were collected in K2EDTA tubes, stored on ice, and centrifuged. Plasma was transferred to a micro titer plate and stored at −70° C. until analysis. Plasma samples were extracted using protein precipitation and analyzed by liquid chromatography separation followed by mass spec detection (LC-MS/MS), using a standard curve for each compound. Plasma pharmacokinetic parameters were calculated for IV and oral dosing data by non-compartmental methods. Oral bioavailability was determined as the ratio of the dose-normalized plasma area under the curve (AUC) following oral dosing verses IV dosing. Plasma pharmacokinetic parameters for clearance, volume of distribution, half-life, and mean residence time (MRT) were determined in dogs from IV cassette administration studies. Two male dogs, typically weighing 8-12 kilograms, were fasted overnight prior to dosing. Compounds were prepared for IV dosing by addition to a vehicle, depending on the dose used. For a typical preparation, 1 mg per mL (IV) of up to 5 test compounds were added to vehicle comprised of 20% dimethyl sulfoxide (DMSO), 60% polyethylene glycol 400 (PEG400) and 20% water. IV formulation was administered to two dogs via the saphenous or cephalic vein. Blood was collected by the cephalic or jugular vein, typically at predose, 2, 8, 15, 30 mins, 1, 2, 4, 6, 8 and 24 hours post-dose. Samples were collected in K2EDTA tubes, stored on ice, and centrifuged. Plasma was transferred to a micro titer plate and stored at −70° C. until analysis. Plasma samples were extracted using protein precipitation and analyzed by liquid chromatography separation followed by mass spec detection (LC-MS/MS), using a standard curve for each compound. Plasma pharmacokinetic parameters were calculated by non-compartmental methods.

The subject of data set [4] is Mycobacterium tuberculosis (Mtb-GFP; H37Rv pMSP12::GFP). The format is cell-based. The following applies: pH 6.8, 7-day growth, 95% growth inhibition; for Mtb Cho MITC95: cholesterol as carbon source; for Mtb Glu MITC95: glucose as carbon source.
Data set [5] is described as follows: Plasma protein binding, dog plasma. It is filed as in vitro ADME. Here is the method: as §1
For data set [6], the system named is mitochondrial protein synthesis in HepG2 cells. Put plainly: Mitochondrial protein synthesis assay. It is filed as cell-based. As to conditions: Homo sapiens, 96 h, 4 days, COX-I vs SDH-A / Janus Green, read-out: MPS IC50. Here is the method: Inhibition of mitochondrial protein synthesis was assessed in HepG2 cells by comparing the levels of two subunits of oxidative phosphorylation enzyme complexes, subunit I of Complex IV (COX-I) and the 70 kDa subunit of Complex II (SDH-A). COX-I is mitochondrial DNA encoded and SDH-A is nuclear DNA encoded.

Setting [7] is: comparison compounds from WO2017/070024, read-out: Rat fu.
Where [8] appears, read: comparison compounds from WO2017/070024, read-out: Dog fu.

`COC(=O)NC[C@H]1CN(c2cc(F)c(N3CCS(=O)(=O)CC3)c(F)c2)C(=O)O1` [Example 1, methyl ({(5S)-3-[4-(1,1-dioxo-1λ^6-thiomorpholin-4-yl)-3,5-difluorophenyl]-2-oxo-1,3-oxazolidin-5-yl}methyl)carbamate]: in the data set “in vivo [1]”, the mean residence time MRT came out at 1.7 h, the Vd came out at 0.9 L/kg and the clearance amounted to 8.5 mL/min/kg. In addition, the fraction unbound at 4 h, 2.5 uM in data set [2] (equilibrium dialysis, 37° C., 4 hours, 2.5 uM, read-out: Rat fu) amounted to 0.42. Further, in the data set “in vivo [3]”, the mean residence time (MRT) was determined as 12.6 h and the clearance worked out at 1.9 mL/min/kg. In addition, in data set [4], the “Mtb Cho MITC95” value came out at 1.16 µM and the “Mtb Glu MITC95” value was 0.71 µM. In addition, the fraction unbound at 4 h, 2.5 uM in data set [5] (equilibrium dialysis, 37° C., 4 hours, 2.5 uM, read-out: Dog fu) was found to be 0.69.
In “in vivo [1]”, `NC[C@H]1CN(c2cnc(N3CCS(=O)(=O)CC3)c(F)c2)C(=O)O1` [Example 48 from WO2017/070024] gave an MRT of 0.5 h, a distribution volume (Vd) of 2.5 L/kg and a clearance of 85 mL/min/kg. In addition, in data set [2] (setting [7]), the fraction unbound at 4 h, 2.5 uM came out at 0.83. In the data set “in vivo [3]”, this molecule showed an MRT of 1.3 h, a Vd of 1.5 L/kg and a clearance of 18 mL/min/kg. For the same molecule, in data set [5] (setting [8]), the fraction unbound at 4 h, 2.5 uM is 0.87.
With `NC[C@H]1CN(c2cc(F)c(N3CCOCC3)c(F)c2)C(=O)O1` [Example 59 from WO2017/070024], in the data set “in vivo [1]”, the MRT came to 0.8 h, the distribution volume (Vd) stood at 2 L/kg and the clearance was determined as 43 mL/min/kg. Moreover, the fraction unbound at 4 h, 2.5 uM in data set [2] (setting [7]) is 0.57. In the data set “in vivo [3]”, this molecule displayed an MRT of 1.3 h, a Vd of 4.2 L/kg and a clearance of 53 mL/min/kg. Also, the fraction unbound at 4 h, 2.5 uM in data set [5] (setting [8]) was 0.81.
With `CC(=O)NC[C@H]1CN(c2ccc(N3CCOCC3)c(F)c2)C(=O)O1` [linezolid], the IC50 in data set [6] was determined as 8 µM. Also, in data set [4], the “Mtb Cho MITC95” value stood at 3.14 µM and the “Mtb Glu MITC95” value stood at 4.58 µM.
